From patent US20120277312A1, “Ethylgallate and Related Compounds as a Treatment for Sepsis and Septic Shock” (priority 2009, published 2012)
Marks after values point to notes of the source that are not given here.

Experiments:
[1] = test system: Escherichia coli septic shock in dogs; assay: In-vivo model of Escherichia coli septic shock in dogs; parameters: species or system dog; conditions: for PCO2: arterial; for Urine-volume: per hour
From the text: We have thus far studied 5 dogs in septic shock in which ethyl gallate was infused. We have compared the results obtained in this group with those found in septic animals (n=5) in which this treatment was not given. In addition, in preliminary experiments, we have looked at the effect of ethyl gallate infusion on hemodynamics in non-septic animals (n=3). In a time control non-septic group in which placebo (normal saline solution) was given, we have studied one animal.
The E coli model used in the studies was identical to that previously described (2). Sepsis was induced by the intravenous infusion of 10^10 colony forming units of live E coli (designation 011:B4). The bacteria were suspended in normal saline solution and were given over 0.5 hour. A constant infusion of approximately 5×10^9 colony forming units/hour of E coli was then maintained over the duration of the two studies.
The animals (16-24 kg) were initially anesthetized with thiopental sodium (20 mg/kg, intravenously) and constantly infused with sufentanil citrate (1-3 μg/min) and midazolam (5 μg/kg/min) (2). Drug rates were adjusted as required to abolish the palpebral reflex. The animals were placed in the supine position; the trachea was […] with an endotracheal tube; and the lungs were mechanically ventilated at a tidal volume of 20 ml/kg. The ventilator rate was initially set to maintain blood pH at approximately 7.35. The rate was increased as necessary to reverse the metabolic acidosis that developed over the course of the study. Approximately 100% oxygen was inspired, so that hypoxemia would not affect the results of the study.
Under sterile conditions and by percutaneous techniques (Arrow International, Reading, Pa.) (2), a thermister tipped catheter was advanced from the right jugular vein into the pulmonary artery to measure mean pulmonary arterial pressure (Ppa), mean pulmonary capillary wedge pressure (Pwp), mean right atrial pressure (Rap), and thermodilution cardiac output (CO) (Edwards Lifesciences, Irvine, Calif.). Another introducer was placed into the left jugular vein for administration of intravenous saline solution, the E coli infusion, and the treatment or placebo drugs. A catheter was placed into the bladder through the urethra to measure urine output over the course of the study. A polyethylene catheter was percutaneously placed into the femoral artery to measure MAP and to obtain samples of blood for arterial PO2, PCO2, pH, hematocrit (Hct), serum electrolytes and creatinine, liver function tests, and lactate concentrations. The laboratory tests were performed by the clinical laboratories at the Health Sciences Centre.
All vascular catheters were connected to transducers (Cobe, Argon Medical Devices Inc, Athens, Tex.), were referenced relative to the left atrium, and were connected to a chart recorder (Astro-Med, W Warwick, R.I.) (2). Heart rate (HR) was measured from the recorder tracing. Stroke-volume (SV) was calculated as CO/HR. Systemic vascular resistance (SVR) was calculated from [(MAP−Pra)/CO]*80.
Stroke work (SW) was our primary index of cardiac performance and the primary hemodynamic endpoint chosen (2). At constant preload, SW reflects both the decrease in afterload and the change in contractile function that accompany sepsis. SW was determined at approximately the same Pwp at each measurement interval. The baseline Pwp usually averaged ≈8-10 mmHg, and normal saline solution was given as necessary to maintain Pwp constant over the experimental period. SW was calculated from SV*(MAP−Pwp).
The purpose of this study was to determine whether ethyl-gallate could reverse the fall in MAP that occurs in this sepsis model. Ethyl gallate was infused after MAP pressure fell approximately 30 to 40% from the baseline value in which this decline in MAP was not responsive to volume infusion to return Pwp to the baseline value (septic shock condition). […]

[2] = test system: lysozyme-induced myocardial depression; assay: Lysozyme-induced myocardial depression, in-vitro experiments; conditions: previous in-vitro experiments
From the text: Usually, when one increases the blood pressure in septic shock, there is the potential for stroke-volume and cardiac out to fall, since the heart has to pump against a greater load. Particularly, in septic shock, cardiac function is depressed.

[3] = septic dogs n = 5, 3 hrs post treatment
[4] = septic dogs n = 5, 5 hrs post treatment
[5] = septic dogs n = 5, Baseline (before sepsis and treatment)
[6] = septic dogs n = 5, septic shock (before treatment)
[7] = septic dogs n = 5, 1 hr post treatment
[8] = septic dogs n = 5, 2 hrs post treatment
[9] = septic dogs n = 5, 4 hrs post treatment
[10] = septic dogs, ethyl-gallate treated group

CCOC(=O)c1cc(O)c(O)c(O)c1 [ethyl gallate]
duration of increase in mean arterial pressure after bolus ([1]; 2 gram intravenous bolus after 5 hours of septic shock, one animal): over 75 minutes | PCO2 [1, 3]: 21 ± 2*# mmHg | PCO2 [1, 4]: 19 ± 2* mmHg | PCO2 [1, 5]: 29 ± 4 mmHg | PCO2 [1, 6]: 27 ± 4 mmHg | duration of increase in MAP after bolus ([1]; bolus after the study was completed, one animal of placebo group): over 1 hr | time in which infusion increased arterial pressure ([1]; individual septic dog, FIG. 2): approximately 18 minutes | Urine-volume [1, 7]: 67 ± 58 mL | Urine-volume [1, 8]: 42 ± 19 mL | Urine-volume [1, 3]: 42 ± 19 mL | Urine-volume [1, 9]: 36 ± 26 mL | Urine-volume [1, 4]: 36 ± 26 mL | Urine-volume [1, 6]: 45 ± 34 mL | dogs that died over the course of the study ([1]; septic dogs): None | HR [1, 7]: 116 ± 47 beats/min | Ppa [1, 7]: 18 ± 4.8 mmHg | Rap [1, 7]: 8 ± 1.3 mmHg | HR [1, 8]: 111 ± 33 beats/min | Ppa [1, 8]: 18 ± 5 mmHg | Rap [1, 8]: 8.6 ± 1.7 mmHg | ALT [1, 3]: 210 ± 90 IU | AST [1, 3]: 268 ± 162 IU | Alk P'tase [1, 3]: 54 ± 36 international units | Arterial pH [1, 3]: 7.21 ± .08* | HR [1, 3]: 107 ± 34 beats/min | LD [1, 3]: 253 ± 172* IU | Platelets [1, 3]: 100 ± 37* ×10^9/L | Ppa [1, 3]: 21 ± 6 mmHg | Rap [1, 3]: 8.8 ± 0.8 mmHg | WBC [1, 3]: 2.1 ± 1.9 ×10^9/L | bilirubin [1, 3]: 11 ± 4.5* mmol/L | chloride [1, 3]: 130 ± 6* mmol/L | glucose [1, 3]: 4.4 ± 1.5 mmol/L | sodium [1, 3]: 152 ± 5 mmol/L | total CO2 [1, 3]: 14 ± 2* mmol/L | HR [1, 9]: 115 ± 36 beats/min | Ppa [1, 9]: 21 ± 9 mmHg | Rap [1, 9]: 9.2 ± 1.1 mmHg | ALT [1, 4]: 236 ± 56 IU | AST [1, 4]: 337 ± 141 IU | Alk P'tase [1, 4]: 91 ± 39* international units | Arterial pH [1, 4]: 7.14 ± .06* | HR [1, 4]: 110 ± 34 beats/min | LD [1, 4]: 335 ± 175* IU | Platelets [1, 4]: 74 ± 21* ×10^9/L | Ppa [1, 4]: 23 ± 7* mmHg | Rap [1, 4]: 8.6 ± 1.3 mmHg | WBC [1, 4]: 2.64 ± 2.3 ×10^9/L | chloride [1, 4]: 130 ± 7* mmol/L | glucose [1, 4]: 3.6 ± 2.2 mmol/L | sodium [1, 4]: 153 ± 6 mmol/L | total CO2 [1, 4]: 14 ± 2* mmol/L | ALT [1, 5]: 52 ± 20 IU | AST [1, 5]: 18 ± 4 IU | Alk P'tase [1, 5]: 31 ± 11 international units | HR [1, 5]: 59 ± 8* beats/min | LD [1, 5]: 26 ± 4 IU | Platelets [1, 5]: 196 ± 18 ×10^9/L | Ppa [1, 5]: 16 ± 1.3 mmHg | Rap [1, 5]: 9 ± 1.2 mmHg | WBC [1, 5]: 3.2 ± 1.9 ×10^9/L | chloride [1, 5]: 118 ± 3 mmol/L | glucose [1, 5]: 5.5 ± 0.3 mmol/L | sodium [1, 5]: 151 ± 2 mmol/L | total CO2 [1, 5]: 21 ± 3 mmol/L | ALT [1, 6]: 139 ± 116 IU | AST [1, 6]: 137 ± 130 IU | Alk P'tase [1, 6]: 41 ± 27 international units | Arterial pH [1, 6]: 7.26 ± .06* | HR [1, 6]: 145 ± 33 beats/min | LD [1, 6]: 128 ± 82 IU | Platelets [1, 6]: 117 ± 27* ×10^9/L | Ppa [1, 6]: 15 ± 2.3 mmHg | Rap [1, 6]: 7 ± 1.3 mmHg | WBC [1, 6]: 1.3 ± 0.7 ×10^9/L | chloride [1, 6]: 123 ± 8*+ mmol/L | glucose [1, 6]: 5.3 ± 0.3 mmol/L | sodium [1, 6]: 150 ± 7+ mmol/L | total CO2 [1, 6]: 18 ± 2* mmol/L | urine output ([1]; septic dogs, between the two groups): no difference | mean arterial pressure (MAP) ([1]; septic dogs, by 1 hour post-treatment, remained over the course of study): returned to the baseline value | serum haemoglobin concentration ([1]; septic dogs, end of the study, vs non-ethyl gallate treated group): higher | time post infusion by which increase in MAP was evident ([1]; septic dogs, ethyl gallate infusion): ≤ 20 min | cardiac output (CO) [1, 10]: did not fall | stroke volume (SV) [1, 10]: did not fall | stroke work (SW) ([1]; septic dogs, over the 5 post-treatment measurement intervals, vs non-treated group): generally higher | serum creatinine ([1]; septic dogs, over the course of the study): decreased | creatine kinase (CK), evidence of rhabdomyolysis ([1]; septic dogs, vs non-treated group): less | normal saline required to maintain Pwp at the baseline value ([1]; septic dogs, vs 4.7±0.8 L in non-treated group, P<0.05): 3.38 ± 0.8 L | systemic vascular resistance (SVR) ([1]; septic dogs, vs septic shock condition and vs non-treated septic group): significantly increased | prevention of lysozyme-induced myocardial depression [2]: prevents
